The text below walks through data of patent US8674103B2, “Lyotropic liquid crystal systems based on aromatic tetracarboxylic bisbenzoimidazole derivatives and methods for making” (Nitto Denko Corporation, priority 2009, dated 2014).

The data set is described as follows: Measurement of dichroic ratios of coated films by polarized absorbance spectra. The data set is classed as physicochemical. How it is done: Gardner Co. Inc.) at a linear velocity of 25 mm/s. The resulting film thickness was approximately 0.2 μm. The process was conducted at room temperature (˜20° C.) and relative humidity of 65% after the film was dried under the same condition. […] The dichroic ratio […] was equal to about 23 at about 500 nm. […] Gardner Co. Inc.) at a linear velocity of 25 mm/s. The resulting film thickness was approximately 200 nm. The process was conducted at room temperature (˜20° C.) and relative humidity of 65% after the film was dried under the same condition. The film was characterized by absorbance spectra measured on a spectrophotometer in a wavelength range from 380 to 780 nm using a light beam polarized along the direction of the film application (Apar) and the direction perpendicular to that (Aper).

Consider `O=C(NCCCS(=O)(=O)[O-])c1ccc2nc3n(c2c1)Cc1ccc2c4c1c-3ccc4c(=O)n1c3cc(C(=O)NCCCS(=O)(=O)[O-])ccc3nc21.[Li+].[Li+]` [Compound 8], for which, where the note is “Sample 7: 8 wt % solution titrated with LiOH to pH 7, film approx. 0.2 μm, at about 450 nm”, the “dichroic ratio (Kd)” value is on record as “about 10”.

`O=C(NCCOCCOCCCS(=O)(=O)O)c1ccc2c(c1)nc1c3ccc4c5ccc6c7c(ccc(c8ccc(c(=O)n21)c3c84)c57)c(=O)n1c2cc(C(=O)NCCOCCOCCCS(=O)(=O)O)ccc2nc61` [Compound 1]: where the note is “Sample 1: 12 wt % solution titrated with triethylamine to pH 7, film approx. 0.2 μm, at about 500 nm”, the “dichroic ratio Kd=log(Apar)/log(Aper)” value is “about 23”. The λmax (Table 1, LLC chromophores) is 500 nm. In addition, the Dichroic ratio (Table 1, at λmax) came to 23.

Consider `O=C(NCCS(=O)(=O)[O-])c1ccc2nc3c4ccc5c(=O)n6c7cc(C(=O)NCCS(=O)(=O)[O-])ccc7nc6c6ccc(c(=O)n3c2c1)c4c56.[K+].[K+]` [Compound 7], for which the “dichroic ratio (Kd)” value (Sample 6: 8 wt % solution titrated with KOH to pH 7, film approx. 0.2, at about 450 nm) is “about 8”.

Take `O=C(NCCN1CCCC1)c1ccc2nc3c4ccc5c(=O)n6c7cc(C(=O)NCCN8CCCC8)ccc7nc6c6ccc(c(=O)n3c2c1)c4c56` [Compound 17d]: the “dichroic ratio (Kd)” value (Sample 11: 25 wt % solution in water, film approx. 200 nm, at about 470 nm) was “about 4”.

`O=C(NCCOCCS(=O)(=O)O)c1ccc2c(c1)nc1c3ccc4c5ccc6c7c(ccc(c8ccc(c(=O)n21)c3c84)c57)c(=O)n1c2cc(C(=O)NCCOCCS(=O)(=O)O)ccc2nc61` [Compound 2]: for the setting “Sample 2: 8 wt % solution titrated with LiOH to pH 7, film approx. 0.2, at about 500 nm”, the “dichroic ratio (Kd)” value was “about 11”.

For `O=C(NCCN(CCCS(=O)(=O)O)CCCS(=O)(=O)O)c1ccc2c(c1)nc1c3ccc4c5ccc6c7c(ccc(c8ccc(c(=O)n21)c3c84)c57)c(=O)n1c2cc(C(=O)NCCN(CCCS(=O)(=O)O)CCCS(=O)(=O)O)ccc2nc61` [Compound 3], the “dichroic ratio (Kd)” value (Sample 3: 15 wt % solution titrated with LiOH to pH 7, film approx. 0.2 μm, at about 500 nm) is reported as “about 17”.
